Data on 4 compounds can be found in patent US4826531A (priority 1986, dated 1989).

In test [1] the test system is CERCOSPORA ARACHIDICOLA (PEANUT). Put plainly: foliar fungal disease control test (Table III). It counts as in vivo. The note with it: 100 ppm foliar spray plus root drench ca. 40 ppm a.i./dry soil; 1-2 days before inoculation. How it is done:
(§1) The compounds were tested against a variety of foliar fungal diseases of plants. The technique employed was as follows.
(§2) The plants were grown in John Innes Potting Compost (No 1 or 2) in 4 cm diameter minipots. The test compounds were formulated either by bead milling with aqueous Dispersol T or as a solution in acetone or acetone/ethanol which was diluted to the required concentration immediately before use. For the foliage diseases, the formulations (100 ppm active ingredient) were sprayed on to the foliage and applied to the roots of the plants in the soil. The sprays were applied to maximum retention and the root drenches to a final concentration equivalent to approximately 40 ppm a.i./dry soil. Tween 20, to give a final concentration of 0.05%, was added when the sprays were applied to cereals.
(§3) For most of the tests the compound was applied to the soil (roots) and to the foliage (by spraying) one or two days before the plant was inoculated with the disease. An exception was the test on Erysiphe graminis in which the plants were inoculated 24 hours before treatment. Foliar pathogens were applied by spray as spore suspensions onto the leaves of test plants. After inoculation, the plants were put into an appropriate environment to allow infection to proceed and then incubated until the disease was ready for assessment. The period between inoculation and assessment varied from four to fourteen days according to the disease and environment.
(§4) The disease control was recorded by the following grading: […]

The test system of test [2] is ERYSIPHE GRAMINIS (BARLEY). Put plainly: foliar fungal disease control test (Table III). It counts as in vivo. The note with it: 100 ppm foliar spray plus root drench ca. 40 ppm a.i./dry soil; inoculated 24 hours before treatment. Here is the method:
as §1, §2, §3, §4

In test [3] the test system is PUCCINIA RECONDITA (WHEAT). Put plainly: foliar fungal disease control test (Table III). The following applies: 100 ppm foliar spray plus root drench ca. 40 ppm a.i./dry soil; 1-2 days before inoculation. Format: in vivo. Here is the method:
as §1, §2, §3, §4

In test [4] the test system is VENTURIA INAEQUALS (APPLE). Put plainly: foliar fungal disease control test (Table III). It counts as in vivo, Venturia inaequalis. The note with it: 100 ppm foliar spray plus root drench ca. 40 ppm a.i./dry soil; 1-2 days before inoculation. How it is done: as §1, §2, §3, §4
Test [5] relates to […] (RICE). Format: in vivo, Pyricularia oryzae. The note with it: 100 ppm foliar spray plus root drench ca. 40 ppm a.i./dry soil; 1-2 days before inoculation.
Test [6] deals with […] (VINE). Put plainly: foliar fungal disease control test (Table III). Format: in vivo, Plasmopara viticola. The following applies: 100 ppm foliar spray plus root drench ca. 40 ppm a.i./dry soil; 1-2 days before inoculation. How it is done: as §1, §2, §3, §4
Test [7] deals with PH[…] (TOMATO). It counts as in vivo, Phytophthora infestans. The following applies: for disease control grading, PH[…] (TOMATO): 100 ppm foliar spray plus root drench ca. 40 ppm a.i./dry soil, 1-2 days before inoculation.
For test [8], the system named is Tomato. Put plainly: whole plant screen for plant growth regulating activity. Format: in vivo, Tomato (Ailsa Craig). Here is the method:
(§5) These compounds were tested on a whole plant screen for plant growth regulating activity against six species of plant. The plant species used in this screen are presented in Table IV with the leaf stage at which they were sprayed.
(§6) A formulation of each chemical was applied at 4000 ppm (4 kg/ha in a 1000 l/ha field volume) using a tracksprayer and a SS8004E (Teejet) nozzle. Additional tests were done on tomatoes at 2000 and 500 ppm.
(§7) After spraying, the plants were grown in a glasshouse with 25° C. day/22° C. night temperatures. The exceptions to this were the temperate cereals wheat and barley, which were grown in 13°-16° C. day/11°-13° C. night temperatures. Supplementary lighting was supplied when necessary to provide an average photoperiod of 16 hours (14 hours minimum).
(§8) After 2-6 weeks in the glasshouse, depending on species and time of year, the plants were visually asessed for morphological characteristics against a control plant sprayed with a blank formulation.

Test [9] relates to Meloidogyne incognita (tomato root-knot eelworm larvae). Put plainly: nematocidal activity.
Test [10] deals with Barley. Put plainly: whole plant screen for plant growth regulating activity. Format: in vivo, Barley (Atem). The note with it: 4000 ppm (4 kg/ha), assessed after 2-6 weeks. How it is done: as §5, §6, §7, §8
In test [11] the test system is Diabrotica balteata (root worm larvae). Put plainly: insecticidal activity.

With `CO/C=C(/C(=O)OC)c1cccnc1Oc1ccc(C)cc1` [Compound 19], the “disease control grading, CERCOSPORA ARACHIDICOLA (PEANUT)” value (“disease control grading … (PEANUT)” below) in test [1] was 4. For the same compound, in test [2], the “disease control grading, ERYSIPHE GRAMINIS (BARLEY)” value (“disease control grading … (BARLEY)” below) is 4. Moreover, the “disease control grading, PUCCINIA RECONDITA (WHEAT)” value (“disease control grading … (WHEAT)” below) in test [3] came to 4. For the same compound, the “disease control grading, VENTURIA INAEQUALS (APPLE)” value (“disease control grading … (APPLE)” for short) in test [4] is 4. Also, in [5], the “disease control grading, […] (RICE)” value is recorded as 4. Besides, the “disease control grading, […] (VINE)” value in test [6] is reported as 4. In test [7], the “disease control grading, PH[…] (TOMATO)” value was 0 (60-100% of disease on untreated plants). In test [8] (4000 ppm (4 kg/ha), assessed after 2-6 weeks), the “plant growth regulating effect, TO” value was 2GAT.
On to `CO/C=C(/C(=O)OC)c1cccnc1Oc1ccccc1` [Compound 15, (E)-methyl-2-(2'-phenoxypyrid-3'-yl)-3-methoxyacrylate], for which, in [1], the “disease control grading … (PEANUT)” value came to 4. Also, in [2], the “disease control grading … (BARLEY)” value was 4. Further, in test [3], the “disease control grading … (WHEAT)” value was found to be 4. The “disease control grading … (APPLE)” value in [4] worked out at 4. The “disease control grading, […] (RICE)” value in test [5] was found to be 4. In test [6], the “disease control grading, […] (VINE)” value is listed as 4. Besides, the “disease control grading, PH[…] (TOMATO), root drench only” value in test [7] (100 ppm root drench only) came out at 4. Also, the “activity against Meloidogyne incognita” value in [9] is on record as “active”.
With `CO/C=C(/C(=O)OC)c1ccncc1Oc1ccccc1` [Compound 43, (E)-methyl-2-(3'-phenoxypyrid-4'-yl)-3-methoxyacrylate], in test [10], the “plant growth regulating effect, BR” value was found to be 2T.
Take `CO/C=C(/C(=O)OC)c1cccnc1Oc1cccc(Cl)c1` [Compound 23]: in test [1], the “disease control grading … (PEANUT)” value came out at 4. The “disease control grading … (BARLEY)” value in test [2] is given as 4. For the same compound, the “disease control grading … (WHEAT)” value in test [3] is 4. In addition, in test [4], the “disease control grading … (APPLE)” value was 4. Moreover, the “disease control grading, […] (RICE)” value in [5] was found to be 4. Also, the “disease control grading, […] (VINE)” value in [6] came to 4. In [7], the “disease control grading, PH[…] (TOMATO)” value amounted to 4. Besides, in [8] (500 ppm), the “plant growth regulating effect, TO+” value is 2G. Also, the “activity against Diabrotica balteata” value in test [11] was “active”.
